Literature values in patent publication US10918618B2, “Methods of reducing microbial contamination” (3M INNOVATIVE PROPERTIES COMPANY, priority 2005, dated 2021).

| solubility limit [g/100 mL] | Structure (SMILES) |
| --- | --- |
| 1.9 | [H]/N=C(\N/C(=N/[H])NCCCCCCNC(=N)NC(=N)Nc1ccc(Cl)cc1)Nc1ccc(Cl)cc1 [diacetate, chlorhexidine] |
| 20 | N=C(NCCCCCCNC(=N)NC(=N)Nc1ccc(Cl)cc1)NC(=N)Nc1ccc(Cl)cc1.O=C(O)[C@H](O)[C@@H](O)[C@H](O)[C@H](O)CO.O=C(O)[C@H](O)[C@@H](O)[C@H](O)[C@H](O)CO [digluconate salt, chlorhexidine digluconate] |
